How the values were obtained:
Microdochium nivale [1] = assay: Experiment 1: poison plate assay (growth inhibition, MIC); format: cell-based; details: potato dextrose agar, 21° C., dark, 75% relative humidity, imazalil 6.66-1.58 ppm, alkoxylated amine 26.66-6.33 ppm, combinations imazalil:amine 1 to 4
Protocol: Activity against growth of Microdochium nivale was determined with the poison plate assay. A calculated amount of a stock solution (containing either imazalil or an alkoxylated amine of formula (I) dissolved in dimethyl sulfoxide was pipetted into multiwell plates. Culture medium (potato dextrose agar) was added aseptically and uniform distribution was obtained by shaking. The plates were inoculated with the test fungus Microdochium nivale (suspension of 6.10^5 spores/ml). The multi-well plates were kept in the dark at 21° C. and a relative humidity of 75%. The stock solution comprising imazalil at a concentration of 2000 ppm was pipetted in the multiwell plates in order to reach a final test concentration in six decreasing steps ranging from 6.66, 5.00, 3.75, 2.81, 2.11 and 1.58 ppm. The stock solution comprising an alkoxylated amine of formula (I) at a concentration of 8000 ppm was pipetted in the multiwell plates in order to reach a final test concentration in six decreasing steps ranging from 26.66, 20.00, 15.00, 11.25, 8.44, and 6.33 ppm wherein the ratio of imazalil to alkoxylated amine of formula (I) is 1 to 4 in each of the wells containing both imazalil and alkoxylated amine (I). The lowest concentration of each test compound or mixture of test compounds sufficient to inhibit visible growth was taken as the minimum inhibitory concentration (MIC). The MIC were taken as end points of activity. End points for the combinations of imazalil with an alkoxylated amine of formula (I) were then compared with the end points for these test compound when employed individually.

Microdochium nivale [2] = assay: Experiment 2: poison plate assay (growth inhibition, MIC); format: cell-based; details: as Experiment 1, imazalil 10-2.37 ppm, alkoxylated amine 40-9.49 ppm
Protocol: Activity against growth of Microdochium nivale was determined with the poison plate assay. A calculated amount of a stock solution (containing either imazalil or an alkoxylated amine of formula (I) dissolved in dimethyl sulfoxide was pipetted into multiwell plates. Culture medium (potato dextrose agar) was added aseptically and uniform distribution was obtained by shaking. The plates were inoculated with the test fungus Microdochium nivale (suspension of 6.10^5 spores/ml). The multi-well plates were kept in the dark at 21° C. and a relative humidity of 75%. The lowest concentration of each test compound or mixture of test compounds sufficient to inhibit visible growth was taken as the minimum inhibitory concentration (MIC). The MIC were taken as end points of activity. End points for the combinations of imazalil with an alkoxylated amine of formula (I) were then compared with the end points for these test compound when employed individually. A similar poison plate assay was run as described in Experiment 1, but the final concentrations of imazalil now ranged from 10, 7.50, 5.63, 4.22, 3.16 to 2.37 ppm. The final concentrations of alkoxylated amine of formula (I) now ranged from 40, 30, 22.50, 16.88, 12.66 to 9.49 ppm.

[3] = Microdochium nivale, read-out: MIC-values (lowest concentration sufficient to inhibit visible growth)

C=CCOC(Cn1ccnc1)c1ccc(Cl)cc1Cl (centres unmarked) [imazalil]
MIC (Microdochium nivale [1]; [3]): 2.81 µg/mL
MIC (Microdochium nivale [2]; [3]): 3.16 µg/mL

N,N′,N′-tris(2-hydroxyethyl)-N-cocoalkyl-1,3-diaminopropane [ethoduomeen C13]
MIC-values (lowest concentration sufficient to inhibit visible growth) (Microdochium nivale [2]): >40 ppm

N,N′,N′-tris-(2-hydroxyethyl)-N-tallowalkyl-1,3-diaminopropane [ethoduomeen T13]
MIC-values (lowest concentration sufficient to inhibit visible growth) (Microdochium nivale [1]): >26.7 ppm

bis-(2-hydroxyethyl)cocoalkylamine [ethomeen C12]
MIC-values (lowest concentration sufficient to inhibit visible growth) (Microdochium nivale [1]): >26.7 ppm

From patent US20110196006A1, “IMAZALIL COMPOSITIONS COMPRISING ALKOXYLATED AMINES” (priority 2004, published 2011)
